The text below walks through data of patent US12617814B2, “Neuroactive steroids and methods of use thereof” (Sage Therapeutics, LLC, priority 2013, dated 2026).

Chain of NMDA receptor (GRIN1/GRIN2A) (Q12879 23-1464, other chains not shown): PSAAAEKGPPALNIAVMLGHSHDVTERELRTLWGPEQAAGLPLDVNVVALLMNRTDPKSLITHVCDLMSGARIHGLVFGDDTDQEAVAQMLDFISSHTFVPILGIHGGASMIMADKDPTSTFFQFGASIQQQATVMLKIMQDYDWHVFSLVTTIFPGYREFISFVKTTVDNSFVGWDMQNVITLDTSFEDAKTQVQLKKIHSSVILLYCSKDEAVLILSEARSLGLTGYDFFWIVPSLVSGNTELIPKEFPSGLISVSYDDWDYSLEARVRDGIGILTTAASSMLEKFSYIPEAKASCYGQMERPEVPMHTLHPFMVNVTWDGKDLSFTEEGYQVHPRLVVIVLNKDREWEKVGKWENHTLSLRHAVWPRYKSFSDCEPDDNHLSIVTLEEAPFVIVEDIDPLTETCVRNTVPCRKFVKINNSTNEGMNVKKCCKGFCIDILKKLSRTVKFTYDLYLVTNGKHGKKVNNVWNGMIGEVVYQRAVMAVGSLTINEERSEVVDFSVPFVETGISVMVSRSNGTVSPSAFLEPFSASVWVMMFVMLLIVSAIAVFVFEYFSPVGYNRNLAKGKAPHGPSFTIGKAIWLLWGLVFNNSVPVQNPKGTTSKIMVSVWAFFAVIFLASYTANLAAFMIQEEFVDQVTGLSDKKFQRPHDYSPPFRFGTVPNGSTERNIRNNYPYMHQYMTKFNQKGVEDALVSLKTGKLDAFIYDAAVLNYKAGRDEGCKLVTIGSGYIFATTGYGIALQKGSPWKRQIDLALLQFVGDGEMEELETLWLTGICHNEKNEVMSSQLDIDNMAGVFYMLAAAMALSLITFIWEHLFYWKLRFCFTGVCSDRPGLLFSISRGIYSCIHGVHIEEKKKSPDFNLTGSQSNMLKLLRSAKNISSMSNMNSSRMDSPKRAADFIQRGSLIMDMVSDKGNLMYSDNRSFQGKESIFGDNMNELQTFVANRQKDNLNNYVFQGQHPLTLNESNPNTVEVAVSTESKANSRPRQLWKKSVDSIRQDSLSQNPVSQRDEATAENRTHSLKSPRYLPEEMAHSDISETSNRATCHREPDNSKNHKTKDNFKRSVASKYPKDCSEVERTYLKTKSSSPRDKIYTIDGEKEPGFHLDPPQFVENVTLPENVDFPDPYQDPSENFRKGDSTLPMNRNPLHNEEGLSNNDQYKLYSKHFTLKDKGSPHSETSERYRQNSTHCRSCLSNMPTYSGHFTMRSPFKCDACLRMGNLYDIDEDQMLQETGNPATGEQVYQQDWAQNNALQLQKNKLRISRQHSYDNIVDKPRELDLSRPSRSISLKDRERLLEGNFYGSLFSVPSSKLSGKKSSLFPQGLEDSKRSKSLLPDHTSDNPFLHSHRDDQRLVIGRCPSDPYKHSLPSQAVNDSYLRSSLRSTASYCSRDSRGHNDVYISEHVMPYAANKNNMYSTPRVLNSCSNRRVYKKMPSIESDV

The test deals with NMDA receptor (GRIN1/GRIN2A) (Homo sapiens, UniProt Q05586+Q12879). Nature of the test: NMDA potentiation, two electrode voltage clamp (TEVC) of Xenopus oocytes expressing NMDA receptor. It is filed as cell-based. The conditions noted are these: 10 μM compound, 3 μM Glutamate and Glycine. The protocol:
NMDA potentiation was assessed using either whole cell patch clamp of mammalian cells which expressed NMDA receptors, or using two-electrode voltage clamp (TEVC) of Xenopus Laevis oocytes expressing NMDA receptors.
The Two Electrode Voltage Clamp (TEVC) technique was used to investigate the effects of compounds (10 μM) on the NMDA receptor (GRIN1/GRIN2A) expressed in Xenopus oocytes. Glutamate/Glycine peak and steady-state currents were recorded from oocytes that expressed the NMDA receptor and the modulatory effects of the test items on these currents were investigated.
Ovaries were harvested from Xenopus Laevis females that had been deeply anesthetized by cooling at 4° C. and immersion in Tricaine methanesulfonate (MS-222 at a concentration of 150 mg/L) in sodium bicarbonate (300 mg/L). Once anesthetized the animal was decapitated and pithed following the rules of animal rights from the Geneva canton. A small piece of ovary was isolated for immediate preparation while the remaining part was placed at 4° C. in a sterile Barth solution containing in mM NaCl 88, KCl 1, NaHCO3 2.4, HEPES 10, MgSO4·7H2O 0.82, Ca(NO3)2·4H2O 0.33, CaCl2·6H2O 0.41, at pH 7.4, and supplemented with 20 μg/ml of kanamycin, 100 unit/ml penicillin and 100 μg/ml streptomycin. All recordings were performed at 18° C. and cells were super-fused with medium containing in mM: NaCl 82.5, KCl 2.5, HEPES 5, CaCl2·2H2O, ·6H2O 1, pH 7.4.
Oocytes were injected with either cDNAs encoding for the human GRIN1 and GRIN2A subunits, using a proprietary automated injection device (Hogg et al., J. Neurosci. Methods, (2008) 169: 65-75) and receptor expression was assessed using electrophysiology at least two days later. The ratio of cDNA injection for GRIN1 and GRIN2A was 1:1. Electrophysiological recordings were made using an automated process equipped with standard TEVC and data were captured and analyzed using a proprietary data acquisition and analysis software running under Matlab (Mathworks Inc.). The membrane potential of the oocytes was maintained at −80 mV throughout the experiments. To explore the effects of proprietary compounds, currents were evoked by applying 3 μM Glutamate and […] Glycine for 10 s. Oocytes were then washed for 90 s before being exposed to the test article at a concentration of 10 μM for 120 s. Following this, 3 μM Glutamate and […] Glycine were immediately reapplied for 10 s. Potentiation of both the peak current and the steady state current was assessed. For statistical analysis values were computed either with Excel (Microsoft) or Matlab (Mathworks Inc.). To obtain mean measurements with standard deviations, all experiments were carried out using at least three cells.
Glutamate was prepared as a concentrated stock solution ([…]) in water and then diluted in the recording medium to obtain the desired test concentration. Glycine was prepared as a stock solution at 1 M in water. Compounds were prepared as stock solution ([…]) in DMSO and then diluted in the recording medium to obtain the desired test concentration.
A general note: Two-electrode voltage clamp is typically applied to oocytes expressing channels or transporters.
As to `C#C[C@](C)(O)CC[C@@H](C)[C@H]1CC[C@H]2[C@@H]3CC[C@H]4C[C@@](C)(O)CC[C@]4(C)[C@H]3CC[C@]12C` [Compound 10-8], the activation at 10 µM lay within 50 to 100%.
Then `C[C@H](CC[C@](C)(O)C(F)(F)F)[C@H]1CC[C@H]2[C@@H]3CC[C@H]4C[C@@](C)(O)CC[C@]4(C)[C@H]3CC[C@]12C` [Compound 3-8], with 50 to 100%.
Consider `C#CC(C)(O)CC[C@@H](C)[C@H]1CC[C@H]2[C@@H]3CC=C4C[C@@](C)(O)CC[C@]4(C)[C@H]3CC[C@]12C` (stereo partly drawn) [Compound 10-2], for which the activation at 10 µM fell in the range of 50 to 100%.
Then `C[C@H](CC[C@@](C)(O)C1CC1)[C@H]1CC[C@H]2[C@@H]3CC[C@H]4C[C@@](C)(O)CC[C@]4(C)[C@H]3CC[C@]12C` [Compound 9-7], with 10 to 50%; and `C[C@H](CC[C@](C)(O)C1CC1)[C@H]1CC[C@H]2[C@@H]3CC=C4C[C@@](C)(O)CC[C@]4(C)[C@H]3CC[C@]12C` [Compound 9-4], with 50 to 100%.
Consider `CC[C@@](C)(O)CC[C@@H](C)[C@H]1CC[C@H]2[C@@H]3CC=C4C[C@@](C)(O)CC[C@]4(C)[C@H]3CC[C@]12C` [Compound 4-11], for which the activation at 10 µM is more than 100%.
With `C#CC(C)(O)CC[C@@H](C)[C@H]1CC[C@H]2[C@@H]3CC[C@H]4C[C@@](C)(O)CC[C@]4(C)[C@H]3CC[C@]12C` (stereo partly drawn) [Compound 10-6], the activation at 10 µM lay in the range of 50 to 100%.
For `CC(C)[C@@](C)(O)CC[C@@H](C)[C@H]1CC[C@H]2[C@@H]3CC=C4C[C@@](C)(O)CC[C@]4(C)[C@H]3CC[C@]12C` [Compound 8-7], the activation at 10 µM lay in the range of 50 to 100%.
Then `C=CC[C@@](C)(O)CC[C@@H](C)[C@H]1CC[C@H]2[C@@H]3CC=C4C[C@@](C)(O)CC[C@]4(C)[C@H]3CC[C@]12C` [Compound 6-8], with 10 to 50%; and `C=C[C@](C)(O)CC[C@@H](C)[C@H]1CC[C@H]2[C@@H]3CC[C@H]4C[C@@](C)(O)CC[C@]4(C)[C@H]3CC[C@]12C` [Compound 10-10], with 10 to 50%.
With `CC(C)[C@](C)(O)CC[C@@H](C)[C@H]1CC[C@H]2[C@@H]3CC[C@H]4C[C@@](C)(O)CC[C@]4(C)[C@H]3CC[C@]12C` [Compound 8-6], the activation at 10 µM was in the range of 10 to 50%.
Then `C=CC[C@](C)(O)CC[C@@H](C)[C@H]1CC[C@H]2[C@@H]3CC[C@H]4C[C@@](C)(O)CC[C@]4(C)[C@H]3CC[C@]12C` [Compound 6-11], with 10 to 50%; and `C=C[C@](C)(O)CC[C@@H](C)[C@H]1CC[C@H]2[C@@H]3CC=C4C[C@@](C)(O)CC[C@]4(C)[C@H]3CC[C@]12C` [Compound 10-12A], with 10 to 50%; and `C[C@H](CC[C@](C)(O)CCO)[C@H]1CC[C@H]2[C@@H]3CC[C@H]4C[C@@](C)(O)CC[C@]4(C)[C@H]3CC[C@]12C` [Compound 10-18], with 50 to 100%.
Under `C[C@H](CC[C@](C)(O)C1CC1)[C@H]1CC[C@H]2[C@@H]3CC[C@H]4C[C@@](C)(O)CC[C@]4(C)[C@H]3CC[C@]12C` [Compound 9-8] stands 10 to 50%; under `CCCC[C@](C)(O)CC[C@@H](C)[C@H]1CC[C@H]2[C@@H]3CC=C4C[C@@](C)(O)CC[C@]4(C)[C@H]3CC[C@]12C` [Compound 7-4], 50 to 100%.
Under `COCC[C@@](C)(O)CC[C@@H](C)[C@H]1CC[C@H]2[C@@H]3CC[C@H]4C[C@@](C)(O)CC[C@]4(C)[C@H]3CC[C@]12C` [Compound 10-19] stands 10 to 50%; under `CCCC[C@](C)(O)CC[C@@H](C)[C@H]1CC[C@H]2[C@@H]3CC[C@H]4C[C@@](C)(O)CC[C@]4(C)[C@H]3CC[C@]12C` [Compound 7-6], more than 100%.
